Target: T1, hFASN enzyme (full length) (Homo sapiens, UniProt P49327)
T1 construct: 10 μL hFASN enzyme (full length, 300 ng, purified in house); made in house
Test: Fatty Acid Synthase (FASN) inhibition scintillation proximity assay
Format: biochemical
Conditions: for inhibition at 10 µM: read-out: Human FASN % inhibition @ 10 μM, 10 μM test compound; for IC50: read-out: Human FASN pIC50 (converted)
In short: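 Full-length in-house purified enzyme (300 ng) was tested in 100 mM KH2PO4 pH 7.5, 1 mM DTT with ³H-acetyl-CoA and malonyl-CoA as substrates; compounds ranged 0.01–30 μM. Reactions were stopped with streptavidin imaging beads, read by LEADseeker at 610 nm, and fitted to a 4-parameter logistic curve.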

T1 sequence (P49327 whole entry): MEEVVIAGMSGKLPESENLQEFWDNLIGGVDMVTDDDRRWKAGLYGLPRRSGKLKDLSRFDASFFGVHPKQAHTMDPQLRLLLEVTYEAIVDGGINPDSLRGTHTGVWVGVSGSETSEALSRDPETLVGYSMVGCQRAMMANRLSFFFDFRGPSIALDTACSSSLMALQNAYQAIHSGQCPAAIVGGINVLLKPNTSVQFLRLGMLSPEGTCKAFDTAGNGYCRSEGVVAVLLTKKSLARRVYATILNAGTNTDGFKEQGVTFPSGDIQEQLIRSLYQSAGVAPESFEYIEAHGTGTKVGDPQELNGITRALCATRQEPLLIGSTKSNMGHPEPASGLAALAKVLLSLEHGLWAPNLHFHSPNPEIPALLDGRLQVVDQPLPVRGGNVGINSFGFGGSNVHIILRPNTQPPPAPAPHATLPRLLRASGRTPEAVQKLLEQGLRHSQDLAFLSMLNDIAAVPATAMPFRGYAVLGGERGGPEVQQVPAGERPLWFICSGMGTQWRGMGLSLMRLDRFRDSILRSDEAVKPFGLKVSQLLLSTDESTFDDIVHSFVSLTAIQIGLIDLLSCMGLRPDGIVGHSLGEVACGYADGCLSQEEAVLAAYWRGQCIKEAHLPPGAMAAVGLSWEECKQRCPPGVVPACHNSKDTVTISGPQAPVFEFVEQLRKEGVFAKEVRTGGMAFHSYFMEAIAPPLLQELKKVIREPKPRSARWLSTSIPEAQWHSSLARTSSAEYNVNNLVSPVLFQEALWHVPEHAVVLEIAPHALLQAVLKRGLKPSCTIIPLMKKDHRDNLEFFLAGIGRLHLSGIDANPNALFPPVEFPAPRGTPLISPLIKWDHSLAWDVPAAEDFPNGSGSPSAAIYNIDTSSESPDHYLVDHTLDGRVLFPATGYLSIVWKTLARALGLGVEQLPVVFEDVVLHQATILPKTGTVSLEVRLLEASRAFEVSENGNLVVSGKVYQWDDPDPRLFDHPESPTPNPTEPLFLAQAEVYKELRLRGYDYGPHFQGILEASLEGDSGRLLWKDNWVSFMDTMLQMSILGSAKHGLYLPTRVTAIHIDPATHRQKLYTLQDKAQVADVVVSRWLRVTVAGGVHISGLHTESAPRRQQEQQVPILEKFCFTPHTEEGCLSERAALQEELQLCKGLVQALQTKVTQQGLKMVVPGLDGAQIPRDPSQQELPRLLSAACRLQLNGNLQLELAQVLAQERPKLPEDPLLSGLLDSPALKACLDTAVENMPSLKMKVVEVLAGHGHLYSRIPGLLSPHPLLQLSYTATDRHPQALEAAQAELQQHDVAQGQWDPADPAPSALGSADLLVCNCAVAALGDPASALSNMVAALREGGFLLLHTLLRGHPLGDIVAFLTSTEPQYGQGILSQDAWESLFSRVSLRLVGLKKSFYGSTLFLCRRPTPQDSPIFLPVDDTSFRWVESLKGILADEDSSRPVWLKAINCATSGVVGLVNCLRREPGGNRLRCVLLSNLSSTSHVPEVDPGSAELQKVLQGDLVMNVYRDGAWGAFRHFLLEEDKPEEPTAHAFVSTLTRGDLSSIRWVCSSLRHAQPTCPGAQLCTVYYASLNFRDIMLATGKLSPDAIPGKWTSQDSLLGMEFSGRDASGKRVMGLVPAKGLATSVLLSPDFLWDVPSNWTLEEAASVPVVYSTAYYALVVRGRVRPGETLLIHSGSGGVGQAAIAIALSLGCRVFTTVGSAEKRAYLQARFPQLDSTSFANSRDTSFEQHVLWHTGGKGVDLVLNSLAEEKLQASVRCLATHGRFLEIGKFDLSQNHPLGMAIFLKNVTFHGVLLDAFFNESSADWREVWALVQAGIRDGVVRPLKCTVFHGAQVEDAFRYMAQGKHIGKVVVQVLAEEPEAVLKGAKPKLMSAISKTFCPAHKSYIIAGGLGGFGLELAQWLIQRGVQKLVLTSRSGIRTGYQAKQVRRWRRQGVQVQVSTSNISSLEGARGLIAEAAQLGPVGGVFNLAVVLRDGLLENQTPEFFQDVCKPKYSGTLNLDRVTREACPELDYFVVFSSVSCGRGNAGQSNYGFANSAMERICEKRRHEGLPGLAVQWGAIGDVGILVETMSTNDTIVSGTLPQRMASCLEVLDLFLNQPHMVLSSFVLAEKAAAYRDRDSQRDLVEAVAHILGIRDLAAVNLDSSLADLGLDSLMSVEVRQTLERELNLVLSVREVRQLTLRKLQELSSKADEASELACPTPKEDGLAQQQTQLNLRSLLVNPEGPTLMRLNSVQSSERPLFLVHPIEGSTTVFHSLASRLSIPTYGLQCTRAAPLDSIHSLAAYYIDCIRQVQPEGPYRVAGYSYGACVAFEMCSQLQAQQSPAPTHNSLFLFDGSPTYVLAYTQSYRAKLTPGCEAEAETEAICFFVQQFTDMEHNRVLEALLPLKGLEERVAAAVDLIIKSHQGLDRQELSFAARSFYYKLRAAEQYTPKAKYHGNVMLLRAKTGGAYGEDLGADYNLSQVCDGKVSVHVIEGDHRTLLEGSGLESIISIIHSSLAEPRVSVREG

Compound | inhibition at 10 µM | IC50
CS(=O)(=O)N1CCC2(CC1)N=C(c1ccc(-c3ccc4occc4c3)cc1)N(CC1CN(C(=O)C3CC3)C1)C2=O [compound 760, 2-[4-(1-Benzofuran-5-yl)phenyl]-3-{[1-(cyclopropylcarbonyl)azetidin-3-yl]methyl}-8-(methylsulfonyl)-1,3,8-triazaspiro[4.5]dec-1-en-4-one] | 62% | 4.79 µM
CS(=O)(=O)N1CCC2(CC1)N=C(c1ccc(-c3ccc4[nH]ncc4c3)cc1)N(CC1CN(C(=O)C3CC3)C1)C2=O [compound 763, 3-{[1-(Cyclopropylcarbonyl)azetidin-3-yl]methyl}-2-[4-(1H-indazol-5-yl)phenyl]-8-(methylsulfonyl)-1,3,8-triazaspiro[4.5]dec-1-en-4-one] | 63% | ~5.37 µM
O=C(C1CC1)N1CC(CN2C(=O)C3(CCN(C(=O)C(F)(F)F)CC3)N=C2c2ccc(-c3ccc4occc4c3)cc2)C1 [compound 764, 2-[4-(1-Benzofuran-5-yl)phenyl]-3-{[1-(cycloprropylcarbonyl)azetidin-3-yl]methyl}-8-(trifluoroacetyl)-1,3,8-triazaspiro[4.5]dec-1-en-4-one] | 63% | ~4.37 µM
O=C(C1CC1)N1CC(CN2C(=O)C3(CCN(C(=O)C(F)(F)F)CC3)N=C2c2ccc(-c3ccc4[nH]ncc4c3)cc2)C1 [compound 766, 3-{[1-(Cyclopropylcarbonyl)azetidin-3-yl]methyl}-2-[4-(1H-indazol-5-yl)phenyl]-8-(trifluoroacetyl)-1,3,8-triazaspiro[4.5]dec-1-en-4-one] | 67% | ~4.47 µM
Cc1cc(-c2ccc3c(cnn3C)c2)ccc1C1=NC2(CC2)C(=O)N1CC1CN(C(=O)C2(O)CCC2)C1 [compound 796, 6-((1-(1-hydroxycyclobutanecarbonyl)azetidin-3-yl)methyl)-5-(2-methyl-4-(1-methyl-1H-indazol-5-yl)phenyl)-4,6-diazaspiro[2.4]hept-4-en-7-one] | 19% | > 10 µM
CC(C)(O)c1ccc(-c2ccc(C3=NC4(CC4)C(=O)N3CC3CN(C(=O)C4CC4)C3)cc2)cn1 [compound 797, 6-((1-(cyclopropanecarbonyl)azetidin-3-yl)methyl)-5-(4-(6-(2-hydroxypropan-2-yl)pyridin-3-yl)phenyl)-4,6-diazaspiro[2.4]hept-4-en-7-one] | 1% | > 10 µM
O=C(C1CC1)N1CC(CN2C(=O)C3(CC3)N=C2c2ccc(-c3ccc(C4CC4)nc3)cc2)C1 [compound 798, 6-((1-(cyclopropanecarbonyl)azetidin-3-yl)methyl)-5-(4-(6-cyclopropylpyridin-3-yl)phenyl)-4,6-diazaspiro[2.4]hept-4-en-7-one] | 30% | > 10 µM
O=C(C1CC1)N1CC(CN2C(=O)C3(CC3)N=C2c2ccc(-c3cnc4ncccc4c3)cc2)C1 [compound 799, 5-(4-(1,8-baphthyridin-3-yl)phenyl)-6-((1-(cyclopropanecarbonyl)azetidin-3-yl)methyl)-4,6-diazaspiro[2.4]hept-4-en-7-one] | 39% | > 10 µM
N#CC1(c2ccc(-c3ccc(C4=NC5(CC5)C(=O)N4CC4CN(C(=O)C5CC5)C4)cc3)cn2)CC1 [compound 800, 1-(5-(4-(6-((1-(cyclopropanecarbonyl)azetidin-3-yl)methyl)-7-oxo-4,6-diazaspiro[2.4]hept-4-en-5-yl)phenyl)pyridin-2-yl)cyclopropanecarbonitrile] | 16% | > 10 µM
O=C(C1CC1)N1CC(CN2C(=O)C3(CC3)N=C2c2ccc(-c3cnc4cccnc4c3)cc2)C1 [compound 801, 5-(4-(1,5-naphthyridin-3-yl)phenyl)-6-((1-(cyclopropanecarbonyl)azetidin-3-yl)methyl),4-6diazaspiro[2.4]hept-4-en-7-one] | 6% | > 10 µM
O=C(C1CC1)N1CC[C@@H](CN2C(=O)C3(CC3)N=C2c2ccc(-c3cncc(Cl)c3)cc2)C1 [compound 802, (R)-5-(4-(5-chlorppyridin-3-yl)phenyl)-6-((1-(cyclopropanecarbonyl)pyrrolidin-3-yl)methyl)-4,6-diazaspiro[2.4]hept-4-en-7-one] | 24% | > 10 µM
O=C(C1CC1)N1CC(CN2C(=O)C3(CC3)N=C2c2ccc(-c3ccc4c(cnn4C4CC4)c3)cc2)C1 [compound 803, 6-((1-(cyclopropanecarbonyl)azetidin-3-yl)methyl)-5-(4-(1-cyclopropyl-1H-indazol-5-yl)phenyl)-4,6-diazaspiro[2.4]hept-4-en-7-one] | 48% | > 10 µM
O=C(C1CC1)N1CC(CN2C(=O)C3(CC3)N=C2c2ccc(-c3ccc4c(cnn4CC4CC4)c3)cc2)C1 [compound 804, 6-((1-(cyclopropanecarbonyl)azetidin-3-yl)methyl)-5-(4-(1-(cyclopropylmethyl)-1H-indazol-5-yl)phenyl)-4,6-diazaspiro[2.4]hept-4-en-7-one] | 41% | > 10 µM
Cc1cc(-c2ccc3c(cnn3C)c2)ccc1C1=NC2(CC2)C(=O)N1CC1CN(C(=O)c2cccnc2)C1 [compound 805, 5-(2-methyl-4-(1-methyl-1H-indazol-5-yl)phenyl)-6-((1-nicotinoylazetidin-3-yl)methyl)-4,6-diazaspiro[2.4]hept-4-en-7-one] | 14% | > 10 µM
O=C(C1CC1)N1CC(CN2C(=O)C3(CC3)N=C2c2ccc(-c3ccc(N4CCOCC4)nc3)cc2)C1 [compound 806, 6-((1-(cyclopropanecarbonyl)azetidin-3-yl)methyl)-5-(4-(6-morpholinopyridin-3-yl)phenyl)-4,6-diazaspiro[2.4]hept-4-en-7-one] | -6% | > 10 µM
O=C1CCc2ccc(-c3ccc(C4=NC5(CC5)C(=O)N4C[C@@H]4CCN(C(=O)C5CC5)C4)cc3)cc2N1 [compound 809, (R)-7-(4-(6-((1-(cyclopropanecarbonyl)pyrrolidin-3-yl)methyl)-7-oxo-4,6-diazaspiro[2.4]hept-4-en-5-yl)phenyl)-3,4-dihydroquinolin-2(1H)-one] | 29% | > 10 µM

Continued, values first:

inhibition at 10 µM | IC50 | Compound
45% | ~7.59 µM | Cn1ncc2cc(-c3ccc(C4=NC5(CCN(S(C)(=O)=O)CC5)C(=O)N4CC4CN(C(=O)C5CC5)C4)cc3)ccc21 [compound 761, 3-{[1-(Cyclopropylcarbonyl)azetidin-3-yl]methyl}-2-[4-(1-methyl-1H-indazol-5-yl)phenyl]-8-(methylsulfonyl)-1,3,8-triazaspiro[4.5]dec-1-en-4-one]
76% | 1.91 µM | CC(C)C(=O)N1CCC2(CC1)N=C(c1ccc(-c3ccc(-c4cnn(C)c4)cc3)cc1)N(CC1CN(C(=O)C3CC3)C1)C2=O [compound 767, 3-{[1-(Cycloprropylcarbonyl)azetidin-3-yl]methyl}-8-(2-methylpropanoyl)-2-[4′-(1-methyl-1H-pyrazol-4-yl)biphenyl-4-yl]-1,3,8-triazaspiro[4.5]dec-1-en-4-one]
79% | 1.45 µM | CN(C)CC(=O)N1CCC2(CC1)N=C(c1ccc(-c3ccc(-c4cnn(C)c4)cc3)cc1)N(CC1CN(C(=O)C3CC3)C1)C2=O [compound 768, 3-{[1-(Cyclopropylcarbonyl)azetidin-3-yl]methyl}-8-(N,N-dimethylglycyl)-2-[4′-(1-methyl-1H-pyrazol-4-yl)biphenyl-4-yl]-1,3,8-triazaspiro[4.5]dec-1-en-4-one]
60% | 5.01 µM | Cn1cc(-c2ccc(-c3ccc(C4=NC5(CCN(S(C)(=O)=O)CC5)C(=O)N4CC4CN(C(=O)C5CC5)C4)cc3)cc2)cn1 [compound 769, 3-{[1-(Cyclopropylcarbonyl)azetidin-3-yl]methyl}-2-[4′-(1-methyl-1H-pyrazol-4-yl)biphenyl-4-yl]-8-(methylsulfonyl)-1,3,8-triazaspiro[4.5]dec-1-en-4-one]
77% | 2.19 µM | Cn1cc(-c2ccc(-c3ccc(C4=NC5(CCN(C(=O)C6CC6)CC5)C(=O)N4CC4CN(C(=O)C5CC5)C4)cc3)cc2)cn1 [compound 770, 8-(Cyclopropylcarbonyl)-3-{[1-(cyclopropylcarbonyl)azetidin-3-yl]methyl}-2-[4′-(1-methyl-1H-pyrazol-4-yl)biphenyl-4-yl]-1,3,8-triazaspiro[4.5]dec-1-en-4-one]
44% | 7.59 µM | CC(C)N1CCC2(CC1)N=C(c1ccc(-c3ccc(-c4cnn(C)c4)cc3)cc1)N(CC1CN(C(=O)C3CC3)C1)C2=O [compound 771, 3-{[1-(Cyclopropylcarbonyl)azetidin-3-yl]methyl}-8-(1-methylethyl)-2-[4′-(1-methyl-1H-pyrazol-4-yl)biphenyl-4-yl]-1,3,8-triazaspiro[4.5]dec-1-en-4-one]
64% | 3.98 µM | Cn1cc(-c2ccc(-c3ccc(C4=NC5(CCN(CCO)CC5)C(=O)N4CC4CN(C(=O)C5CC5)C4)cc3)cc2)cn1 [compound 772, 3-{[1-(Cyclopropylcarbonyl)azetidin-3-yl]methyl}-8-(2-hydroxyethyl)-2-[4′-(1-methyl-1H-pyrazol-4-yl)biphenyl-4-yl]-1,3,8-triazaspiro[4.5]dec-1-en-4-one]
7% | > 10 µM | CC(C)n1ncc2cc(-c3ccc(C4=NC5(CC5)C(=O)N4CC4CN(C(=O)C5CC5)C4)cc3)ccc21 [compound 807, 6-((1-(cyclopropanecarbonyl)azetidin-3-yl)methyl)-5-(4-(1-isopropyl-1H-indazol-5-yl)phenyl)-4,6-diazaspiro[2.4]hept-4-en-7-one]
31% | > 10 µM | CC(C)n1cc2cc(-c3ccc(C4=NC5(CC5)C(=O)N4CC4CN(C(=O)C5CC5)C4)cc3)ccc2n1 [compound 808, 6-((1-(cyclopropanecarbonyl)azetidin-3-yl)methyl)-5-(4-(2-isopropyl-2H-indazol-5-yl)phenyl)-4,6-diazaspiro[2.4]hept-4-en-7-one]

From US10077261B2, “Imidazolin-5-one derivative useful as FASN inhibitors for the treatment of cancer” (Janssen Pharmaceutica NV, priority 2012, dated 2018)
